Test results as given in patent publication US20250281449A1, “NITROGEN-CONTAINING ANALOGS OF SALINOMYCIN FOR USE IN MULTIPLE MYELOMA (MM)” (Centre National de la Recherche Scientifique, priority 2021, published 2025).

Tests used:
XG20 = assay: Cell viability assay (Cell Titer-Glo), HMCL; format: cell-based; details: Homo sapiens; XG20 HMCL, 96H; read-out: IC50
Protocol: (§1) The panel of 17 HMCL cell lines were incubated with increasing concentrations of Ironomycin (A), AM23 (B) or vehicle for 96H.
(§2) HMCL cell lines were cultured for 4 days in 96-well flat-bottom microtiter plates in RPMI 1640 medium or DMEM medium, 10% or 20% FCS (control medium) in the presence of various compounds. The number of viable cells in culture was determined using the Cell Titer-Glo Luminescent Cell Viability Assay from Promega, Madison, WI, USA using a Centro LB 960 luminometer (Berthold Technologies, Bad Wildbad, Germany).
(§3) This test is based on quantitation of the intracellular ATP present, which signals the presence of metabolically active cells. Data are expressed as the mean percentage of six replicates, normalized to the untreated control.

XG12 = assay: Cell viability assay (Cell Titer-Glo), HMCL; format: cell-based; details: Homo sapiens; XG12 HMCL, 96H; read-out: IC50
Protocol: as §1, §2, §3

RPMI = assay: Cell viability assay (Cell Titer-Glo), HMCL; format: cell-based; details: Homo sapiens, 96H
Protocol: as §1, §2, §3

JJN3 = assay: Cell viability assay (Cell Titer-Glo), HMCL; format: cell-based; details: Homo sapiens, JJN-3, 96H
Protocol: as §1, §2, §3

XG21 = assay: Cell viability assay (Cell Titer-Glo), HMCL; format: cell-based; details: Homo sapiens; XG21 HMCL, 96H; read-out: IC50
Protocol: as §1, §2, §3

AMO-1 = assay: Cell viability assay (Cell Titer-Glo), HMCL; format: cell-based; details: Homo sapiens, AMO1; AMO-1 HMCL, 96H
Protocol: as §1, §2, §3

MOLP-8 = assay: Cell viability assay (Cell Titer-Glo), HMCL; format: cell-based; details: Homo sapiens; MOLP-8 HMCL, 96H; read-out: IC50
Protocol: as §1, §2, §3

XG2 = assay: Cell viability assay (Cell Titer-Glo), HMCL; format: cell-based; details: Homo sapiens, 96H
Protocol: as §1, §2, §3

OPM-2 = assay: Cell viability assay (Cell Titer-Glo), HMCL; format: cell-based; details: Homo sapiens; OPM-2 HMCL, 96H; read-out: IC50
Protocol: as §1, §2, §3

XG6 = assay: Cell viability assay (Cell Titer-Glo), HMCL; format: cell-based; details: Homo sapiens; XG6 HMCL, 96H; read-out: IC50
Protocol: as §1, §2, §3

XG-1 = assay: Cell viability assay (Cell Titer-Glo), HMCL; format: cell-based; details: Homo sapiens; XG-1 HMCL, 96H; read-out: IC50
Protocol: as §1, §2, §3

XG-19 = assay: Cell viability assay (Cell Titer-Glo), HMCL; format: cell-based; details: Homo sapiens; XG-19 HMCL, 96H
Protocol: as §1, §2, §3

XG24 = assay: Cell viability assay (Cell Titer-Glo), HMCL; format: cell-based; details: Homo sapiens; XG24 HMCL, 96H; read-out: IC50
Protocol: as §1, §2, §3

L363 = assay: Cell viability assay (Cell Titer-Glo), HMCL; format: cell-based; details: Homo sapiens, L-363, 96H
Protocol: as §1, §2, §3

XG-7 = assay: Cell viability assay (Cell Titer-Glo), HMCL; format: cell-based; details: Homo sapiens; XG-7 HMCL, 96H; read-out: IC50
Protocol: as §1, §2, §3

XG11 = assay: Cell viability assay (Cell Titer-Glo), HMCL; format: cell-based; details: Homo sapiens, 96H
Protocol: as §1, §2, §3

XG28 = assay: Cell viability assay (Cell Titer-Glo), HMCL; format: cell-based; details: Homo sapiens; XG28 HMCL, 96H; read-out: IC50
Protocol: as §1, §2, §3

H3K36me3 = assay: Western blot of histone methylation; format: cell-based, human; details: 24H
Protocol: Cells were treated with iron chelators (80 μM Deferasirox), and Ironomycin (IC50 and 200 nM) during 24H. Protein levels of MMSET (isoforms I and II), MYC, H3K36me3 and H3K27me3 were analyzed by western blot. MMSET (isoforms I and II) and MYC signal were normalized by α-tubulin protein level, H3K36me3 and H3K27me3 signal were normalized by total histone 3 protein level.
The total cell lysates were obtained with RIPA 1× lysis buffer (#9806, Cell Signaling®) according with the supplier recommendations.
Protein lysates migrate on 10% polyacrylamide gel (NP-0301, Novex, Life Technologies®), in MOPS 1× running buffer (NP0001, Novex, Life Technologies®) or MES 1× running buffer NP-0002, Novex, Life Technologies®) and proteins are transferred to nitrocellulose membrane (1B301001, I-Blot Transfert Starck, NuPAGE, Life Technologies®). The primary antibodies mouse-anti-phospho-Histone H2A.X (Ser139) clone JBW301 ( 1/1000, Merck Millipore), anti-H3K36me3 (#ab9050, abcam®), anti-H3K27me3 (#9733, Cell Signaling®), anti-MMSET (#65127, Cell Signaling® et ab75359, abcam), anti-MYC (#5605, Cell Signaling®) were incubated in TBS-Tween 20 0.1% (Tris-Buffered Saline, pH 7.4) with 5% non-fat milk or Bovine serum albumin (Sigma-Aldrich, A7906). […] Quantification of protein levels was performed with Image J® software (National Institutes of Health, Bethesda, MD, USA).

[1] = system: XG2 melphalan resistant (XG2 Melph R) cell line; assay: Drug combination concentration matrix, viability by ATP quantification, Bliss synergy; format: cell-based, human; details: melphalan resistant cell line XG2 MeIR, 96 h
Protocol: XG-7 or XG2 WT (XG2 neg) or XG2 melphalan resistant (XG2 Melph R) cell lines were respectively treated with increasing concentrations of ironomycin combined with melphalan during 96 h and cell viability was tested by ATP quantification to obtain the viability matrix. The synergy matrix was calculated as described in Material and Methods.
as §2
The interaction between the drugs tested in vitro was investigated with a concentration matrix test, in which increasing concentration of each single drug were assessed with all possible combinations of the other drugs. For each combination, the percentage of expected growing cells in the case of effect independence was calculated according to the Bliss equation (Combes et al., 2019): […]
where fuC is the expected fraction of cells unaffected by the drug combination in the case of effect independence, and fuA and fuB are the fractions of cells unaffected by treatment A and B, respectively. […]

## C#CCN[C@@H]1C=C[C@]2(O[C@H]([C@@H](CC)C(=O)[C@@H](C)[C@@H](O)[C@H](C)[C@@H]3O[C@@H]([C@@H](CC)C(=O)O)CC[C@@H]3C)[C@@H](C)C[C@H]2C)O[C@@]12CC[C@@](C)([C@H]1CC[C@](O)(CC)[C@H](C)O1)O2 [Ironomycin]
XG20
  IC50: 444 nM
XG12
  IC50: 30 nM
RPMI
  IC50: 73 nM
JJN3
  IC50: 84 nM
XG21
  IC50: 156 nM
AMO-1
  IC50: 57 nM
MOLP-8
  IC50: 64.7 nM
XG2
  IC50: 24 nM
OPM-2
  IC50: 36 nM
XG6
  IC50: 26 nM
XG-1
  IC50: 239 nM
XG-19
  IC50: 27 nM
XG24
  IC50: 19 nM
L363
  IC50: 13 nM
XG-7
  IC50: 52 nM
XG11
  IC50: 51 nM
XG28
  IC50: 31 nM
H3K36me3
  H3K36 methylation: significant deregulation of H3K36 methylation
[1]
  interaction effect, combined with melphalan: remains synergistic
